Data taken from patent US8252543B2, “Method for detecting candidate alzheimer's disease drug” (Tomohiro Chiba, priority 2006, dated 2012).
Entries after “also recorded” stand apart in the source; their conditions may differ. Where no end group is shown, it is not given here.

B1: CNTF: ciliary neurotrophic factor (protein, UniProt P26441 1-200, looked up)
Ciliary neurotrophic factor: MAFTEHSPLTPHRRDLCSRSIWLARKIRSDLTALTESYVKHQGLNKNINLDSADGMPVASTDQWSELTEAERLQENLQAYRTFHVLLARLLEDQQVHFTPTEGDFHQAIHTLLLQVAAFAYQIEELMILLEYKIPRNEADGMPINVGDGGLFEKKLWGLKVLQELSQWTVRSIHDLRFISSHQTGIPARGSHYIANNKKM

Columns and labels:
[1] = system: STAT3; assay: STAT3 phosphorylation in PC12 cells (immunoblot); assay type: cell-based; details: CNTF 50 ng/ml, IL-6 50 ng/ml, Colivelin 100 pM
Experimental: (§1) To examine the ability of Colivelin to phosphorylate STAT3 in vivo, a solvent (FIGS. 3A and 3C) or Colivelin (FIGS. 3B and 3D) was administered transnasally to mice twice at 24 hours-intervals. Brain samples were collected 30 minutes after the final administration, and then fresh frozen sections were prepared therefrom. The sections were then stained with an anti-phospho-STAT3 antibody. […] To examine the effect of Colivelin to phosphorylate STAT3 in vitro, PC12 cells were treated with a vehicle (MQ), CNTF, IL-6, Humanin (HN), D-Ser14-HN (D-14), and Colivelin (Col) for […] for stimulation. Phosphorylated STAT3 and total STAT3 were detected by an immunoblot method (FIG. 3E).
PC12 cells were cultured in DNEM (Wako) containing 10% serum (10%-DMEM). For phosphorylation analysis, PC12 cells (cultured at 1.6×10^5 cells/well in a 6-well plate containing serum-free DMEM for 24 hours) were stimulated with a ciliary neurotrophic factor (CNTF, 50 ng/ml), interleukin-6 (IL-6, 50 ng/ml), HN ([…], D-Ser14-HN (D-14, 10 μM, and Colivelin (100 pM) for 15 minutes. Cells were rinsed once with PBS and then lysed in a buffer solution containing phosphatase inhibitors (50 mM Tris HCl [pH7.4], 150 mM NaCl, 1% Triton-X 100, protease inhibitors, 1 mM EDTA, and phosphatase inhibitor cocktails 1 and 2 [Sigma]). Collected samples were separated by normal SDS-PAGE and were then electrically blotted onto PVDF membranes. Detection was performed using an anti-phospho-STAT3 (1:500 dilution) antibody and horseradish peroxidase (HRP)-labeled anti-rabbit IgG antibody (BioRad Laboratories, Hercules, Calif., U.S.A.). Immunoreactive bands were visualized using ECL Western Blotting Detection Reagents (Amersham Bioscience, Uppsala, Sweden). Immunoreactive bands corresponding to total-STAT3 antibody (1:3000 dilution) were subjected to detection on the identical membrane stripped and then determined to be controls.

[2] = system: STAT3; assay: STAT3 phosphorylation in mouse brain after transnasal Colivelin (anti-phospho-STAT3 immunohistochemistry); assay type: in vivo; details: mice, transnasal twice at 24 hours-intervals, brain collected 30 minutes after final administration, vs vehicle
Experimental: as §1
Immunohistochemical analysis was performed as described in the document (Yamada M et al., Behav Brain Res (2005) 164: 139-146; Chiba T et al., J Neurosci (2005) 25: 10252-10261). Mice were transcardially perfused with phosphate buffered saline (PBS) and then perfused with 4% paraformaldehyde (PFA). Paraffine-embedded sections or fresh frozen sections, each having a thickness of 10 μm, were prepared. […]
We confirmed STAT3 activation in the brains of mice to which Colivelin had been nasally administered twice every 24 hours (FIGS. 3A-D). […] After 3 weeks of administration (administered every other day), their cognitive functions were analyzed by YM, water-finding task (WFT), and elevated-plus maze (EPM). […]

[3] = system: Tg2576 mice; assay: Y-maze test (YM) in Tg2576 mice; assay type: in vivo; details: Tg2576 mice 15 months of age, nasal administration for 3 weeks (every other day)
Experimental: (§2) Tg2576 mice and wild-type control mice at 15 months of age were tested by Y-maze test (YM) (FIG. 4A, left). […] Mice were then subjected to nasal administration of Colivelin or a vehicle for 3 weeks. Subsequently, mice were again tested by Y-maze test. […] However, Colivelin administration seemed to ameliorate tendencies observed in Tg2576 to which the vehicle had been administered, such as delay in transfer latency, shortened 1 stay, and prolonged time spent in open arm (difficult to fear).
(§3) Y-maze test (YM) was performed as described in the document (Yamada M et al., Behav Brain Res (2005) 164: 139-146). The apparatus for YM is composed of three grey plastic arms (40 cm long, 12 cm high, 3 cm wide at the bottom, and 10 cm wide at the top). Mice were each allowed to explore the maze freely under observation for 8 minutes. Spontaneous alternation behavior % (SA %) is an indication of spatial working memory and is calculated using a ratio of the arm choices differing from the previous two choices to total choices during the run. […] The time between the onset of exploration and entering to the alcove (Entering latency), initiation of drinking from the water tube (Drinking latency), and the number of grid-line crossing during the test were measured Elevated-plus maze (EPM) was performed as described in the document (Kawasumi M et al., Eur J Neurosci (2004) 19: 2826-2838). […]

[4] = system: Tg2576 mice; assay: Water-finding task (WFT) in Tg2576 mice; assay type: in vivo; details: nasal administration for 3 weeks (every other day)
Experimental: as §2, §3

[5] = system: Tg2576 mice; assay: Elevated-plus maze (EPM) in Tg2576 mice; assay type: in vivo; details: nasal administration for 3 weeks (every other day)
Experimental: as §2, §3

[6] = system: STAT3; assay: Anti-phospho-STAT3 staining of hippocampus of Tg2576 and wild-type mice after Colivelin administration; assay type: in vivo; details: for STAT3 phosphorylation in Tg2576 hippocampus (anti-phospho-STAT3 staining): Tg2576 mice after 3 weeks nasal administration
Experimental: The brain sections of Tg2576 mice to which Colivelin had been administered were collected, paraffin-embedded samples were prepared therefrom, and then anti-phospho-STAT3 staining was performed. FIGS. 5A and 5B denote wild-type mice to which a vehicle had been administered; FIGS. 5C and 5D denote wild-type mice to which Colivelin had been administered; FIGS. 5E and 5F denote Tg2576 to which the vehicle had been administered; and FIGS. 5G and 5H denote the hippocampus of Tg2576 to which Colivelin had been administered.
Immunohistochemical analysis was performed as described in the document (Yamada M et al., Behav Brain Res (2005) 164: 139-146; Chiba T et al., J Neurosci (2005) 25: 10252-10261). Mice were transcardially perfused with phosphate buffered saline (PBS) and then perfused with 4% paraformaldehyde (PFA). Paraffine-embedded sections or fresh frozen sections, each having a thickness of 10 μm, were prepared. Immunohistochemical detection was performed with anti-phospho-STAT3 antibody (1:100 dilution). Staining images were visualized with the ABC method (Vectastain Elite Kit, Vector, Calif. U.S.A.) or Tyramide signal enhancer kit (Perkin-Elmer).
We confirmed STAT3 activation in the brains of mice to which Colivelin had been nasally administered twice every 24 hours (FIGS. 3A-D). […] We also confirmed STAT3 phosphorylation in an in vitro experiment using PC12 cells. […] To confirm the therapeutic effect of STAT3 activation, an experiment (nasal administration of Colivelin to mice) was conducted for Tg2576 mice, which had been tested by Y-maze test (YM) and confirmed to have memory disorder at 15 months of age (FIG. 4A, left panel). After 3 weeks of administration (administered every other day), their cognitive functions were analyzed by YM, water-finding task (WFT), and elevated-plus maze (EPM). […] We performed phospho-STAT3 immunostaining using the brains of these mice (FIG. 5). We observed significant loss of phospho-STAT3 immunoreactivity in the control Tg2576 mice to which the vehicle had been administered, compared with the wild-type mice.

[7] = system: STAT3; details: reported in Hashimoto 2005, Chiba 2005; cited from earlier work

Row | Molecule | STAT3 phosphorylation (phosphorylated STAT3 vs total STAT3, immunoblot) [1] | STAT3 phosphorylation in cerebral cortex (anti-phospho-STAT3 staining) [2] | STAT3 phosphorylation in hippocampus (anti-phospho-STAT3 staining) [2] | Spontaneous alternation behavior % (SA %), spatial working memory [3] | WFT indices of memory including drinking latency, entering latency, and crossing [4] | EPM (transfer latency, 1st stay, time spent in open arms) [5] | STAT3 phosphorylation in Tg2576 hippocampus (anti-phospho-STAT3 staining) [6] | STAT3 phosphorylation in Tg2576 hippocampus (anti-phospho-STAT3 staining) ([6]; listed as Coliverlin) | STAT3 phosphorylation levels in wild-type hippocampus (anti-phospho-STAT3 staining) ([6]; wild-type mice after Colivelin administration) | In vitro STAT3 activation / suppression of cell death [7]
1 | IL-6: interleukin-6 | STAT3 had been phosphorylated; also recorded: STAT3 is phosphorylated | – | – | – | – | – | – | – | – | –
2 | SALLRSIPAPAGASRLLLLTGEIDLP [Colivelin] | STAT3 had been phosphorylated; also recorded: STAT3 is phosphorylated | no significant changes were observed; also recorded: no significant differences were confirmed | Significant STAT3 phosphorylation was observed; also recorded: Hippocampus-predominant STAT3 phosphorylation | significantly improved; also recorded: improvement in cognitive functions was confirmed | significant amelioration was observed; also recorded: improvement in cognitive functions was confirmed | No significant differences were observed; also recorded: no significant changes were observed | levels close to those in the case of wild-type mice to which the vehicle had been administered | recovery of phospho-STAT3 immunoreactivity | slightly increased | activates in vitro STAT3 so as to suppress cell death
3 | B1 | STAT3 had been phosphorylated; also recorded: STAT3 is phosphorylated | – | – | – | – | – | – | – | – | –
